Results from the NIST ThermoML archive (doi:10.1016/j.jct.2016.10.023).

Assay: xn = mol fraction of the nth substance listed
Details: Constant-volume piezometry

CCCCC [pentane] + CCCO
Details	mass density [kg/m3]
553.15 K, 10864 kPa, Fluid (supercritical or subcritical phases), x1 = 0.9	311.86
553.15 K, 11147 kPa, Fluid (supercritical or subcritical phases), x1 = 0.2	390.67
553.15 K, 11334 kPa, Fluid (supercritical or subcritical phases), x1 = 0.8	314.89
553.15 K, 12137 kPa, Fluid (supercritical or subcritical phases), x1 = 0.9	333.53
553.15 K, 12374 kPa, Fluid (supercritical or subcritical phases), x1 = 0.8	333.35
553.15 K, 13032 kPa, Fluid (supercritical or subcritical phases), x1 = 0.2	418.04
553.15 K, 13118 kPa, Fluid (supercritical or subcritical phases), x1 = 0.8	344.85
553.15 K, 13951 kPa, Fluid (supercritical or subcritical phases), x1 = 0.9	353.59
553.15 K, 14669 kPa, Fluid (supercritical or subcritical phases), x1 = 0.8	361.39
553.15 K, 18451 kPa, Fluid (supercritical or subcritical phases), x1 = 0.2	469.6
553.15 K, 20863 kPa, Fluid (supercritical or subcritical phases), x1 = 0.9	406.66
553.15 K, 21933 kPa, Fluid (supercritical or subcritical phases), x1 = 0.8	417.56
553.15 K, 25921 kPa, Fluid (supercritical or subcritical phases), x1 = 0.2	508.72
553.15 K, 34331 kPa, Fluid (supercritical or subcritical phases), x1 = 0.8	465.95
553.15 K, 37494 kPa, Fluid (supercritical or subcritical phases), x1 = 0.2	546.06
563.15 K, 1429 kPa, Gas, x1 = 0.8	22.48
563.15 K, 1719 kPa, Gas, x1 = 0.2	24.88
563.15 K, 2200 kPa, Gas, x1 = 0.8	36.62
563.15 K, 3253 kPa, Gas, x1 = 0.8	58.3
563.15 K, 3644 kPa, Gas, x1 = 0.2	52.9
563.15 K, 3914 kPa, Fluid (supercritical or subcritical phases), x1 = 0.8	73.65
563.15 K, 4188 kPa, Fluid (supercritical or subcritical phases), x1 = 0.9	83.22
563.15 K, 4893 kPa, Fluid (supercritical or subcritical phases), x1 = 0.2	91.24
563.15 K, 5140 kPa, Fluid (supercritical or subcritical phases), x1 = 0.8	106.2
563.15 K, 5522 kPa, Fluid (supercritical or subcritical phases), x1 = 0.9	123.11
563.15 K, 5594 kPa, Fluid (supercritical or subcritical phases), x1 = 0.2	114.13
563.15 K, 5876 kPa, Fluid (supercritical or subcritical phases), x1 = 0.9	133.86
563.15 K, 6362 kPa, Fluid (supercritical or subcritical phases), x1 = 0.8	140.03
563.15 K, 6504 kPa, Fluid (supercritical or subcritical phases), x1 = 0.2	150.05
563.15 K, 6690 kPa, Fluid (supercritical or subcritical phases), x1 = 0.9	163.64
563.15 K, 6728 kPa, Fluid (supercritical or subcritical phases), x1 = 0.8	155.74
563.15 K, 6993 kPa, Fluid (supercritical or subcritical phases), x1 = 0.2	175.27
563.15 K, 7120 kPa, Fluid (supercritical or subcritical phases), x1 = 0.8	169.45
563.15 K, 7244 kPa, Fluid (supercritical or subcritical phases), x1 = 0.2	189.26
563.15 K, 7275 kPa, Fluid (supercritical or subcritical phases), x1 = 0.8	175.68
563.15 K, 7389 kPa, Fluid (supercritical or subcritical phases), x1 = 0.8	180.47
563.15 K, 7397 kPa, Fluid (supercritical or subcritical phases), x1 = 0.9	189.08
563.15 K, 7718 kPa, Fluid (supercritical or subcritical phases), x1 = 0.2	219.66
563.15 K, 7728 kPa, Fluid (supercritical or subcritical phases), x1 = 0.8	192.78
563.15 K, 7738 kPa, Fluid (supercritical or subcritical phases), x1 = 0.9	201.98
563.15 K, 8148 kPa, Fluid (supercritical or subcritical phases), x1 = 0.2	244.99
563.15 K, 8285 kPa, Fluid (supercritical or subcritical phases), x1 = 0.9	220.25
563.15 K, 8310 kPa, Fluid (supercritical or subcritical phases), x1 = 0.8	213.43
563.15 K, 8376 kPa, Fluid (supercritical or subcritical phases), x1 = 0.2	258.68
563.15 K, 8439 kPa, Fluid (supercritical or subcritical phases), x1 = 0.2	262.38
563.15 K, 8483 kPa, Fluid (supercritical or subcritical phases), x1 = 0.8	219.19
563.15 K, 8609 kPa, Fluid (supercritical or subcritical phases), x1 = 0.2	271.82
563.15 K, 8640 kPa, Fluid (supercritical or subcritical phases), x1 = 0.9	232.6
563.15 K, 8748 kPa, Fluid (supercritical or subcritical phases), x1 = 0.9	236.06
563.15 K, 8876 kPa, Fluid (supercritical or subcritical phases), x1 = 0.9	240.45
563.15 K, 8904 kPa, Fluid (supercritical or subcritical phases), x1 = 0.8	234.24
563.15 K, 8945 kPa, Fluid (supercritical or subcritical phases), x1 = 0.2	289.96
563.15 K, 8965 kPa, Fluid (supercritical or subcritical phases), x1 = 0.9	243.76
563.15 K, 9207 kPa, Fluid (supercritical or subcritical phases), x1 = 0.8	244.86
563.15 K, 9294 kPa, Fluid (supercritical or subcritical phases), x1 = 0.2	306.21
563.15 K, 9393 kPa, Fluid (supercritical or subcritical phases), x1 = 0.2	310.43
563.15 K, 9613 kPa, Fluid (supercritical or subcritical phases), x1 = 0.2	318.13
563.15 K, 9648 kPa, Fluid (supercritical or subcritical phases), x1 = 0.8	258.06
563.15 K, 10165 kPa, Fluid (supercritical or subcritical phases), x1 = 0.8	271.99
563.15 K, 10334 kPa, Fluid (supercritical or subcritical phases), x1 = 0.2	340.56
563.15 K, 10363 kPa, Fluid (supercritical or subcritical phases), x1 = 0.9	281.45
563.15 K, 10433 kPa, Fluid (supercritical or subcritical phases), x1 = 0.2	343.35
563.15 K, 10875 kPa, Fluid (supercritical or subcritical phases), x1 = 0.8	287.81
563.15 K, 11127 kPa, Fluid (supercritical or subcritical phases), x1 = 0.9	301.08
563.15 K, 11345 kPa, Fluid (supercritical or subcritical phases), x1 = 0.8	298.6
563.15 K, 11776 kPa, Fluid (supercritical or subcritical phases), x1 = 0.9	311.7
563.15 K, 11942 kPa, Fluid (supercritical or subcritical phases), x1 = 0.2	377.85
563.15 K, 12196 kPa, Fluid (supercritical or subcritical phases), x1 = 0.2	382.64
563.15 K, 12285 kPa, Fluid (supercritical or subcritical phases), x1 = 0.8	314.73
563.15 K, 12687 kPa, Fluid (supercritical or subcritical phases), x1 = 0.2	390.46
563.15 K, 13176 kPa, Fluid (supercritical or subcritical phases), x1 = 0.9	333.36
563.15 K, 13452 kPa, Fluid (supercritical or subcritical phases), x1 = 0.8	333.18
563.15 K, 14255 kPa, Fluid (supercritical or subcritical phases), x1 = 0.8	344.68
563.15 K, 14845 kPa, Fluid (supercritical or subcritical phases), x1 = 0.2	417.82
